Laboratory results: patent US20230128609A1, “TUMOR SUPPRESSION BY MODULATION OF NON-CANONICAL AUTOPHAGY (LAP) IN MYELOID CELLS” (St. Jude Children's Research Hospital, priority 2017, published 2023)

Test system: RAW cells expressing Venus-LC3
Experiment: Evaluation of LAP, as assessed by LC3-II lipidation upon zymozan stimulation, by flow cytometry
Format: cell-based
Conditions: RAW cells expressing Venus-LC3 stimulated with zymozan-Alexa594 (ZYM) for 1 h, treatment started 30 min prior to stimulation, digitonin-permeabilized cells
Method: (FIG. 9D) Evaluation of LAP, as assessed by LC3-II lipidation upon stimuli. RAW cells expressing Venus-LC3 were stimulated with ZYM for 1 h, treated with digitonin and accumulation of lipidated LC3-II in permeabilized cells was measured by flow cytometry. (FIG. 9E) Quantification of FIG. 9D, in MFI. […] Flow cytometry analysis. At the indicated time points, GFP-LC3+ cells can be collected, washed once with FACS buffer, and permeabilized with digitonin (Sigma, 200 g ml-1) for 15 min on ice. Cells can be washed 3 times with FACS buffer and analysed by flow cytometry for membrane-bound GFP—LC3—II.

SMILES: COc1cc(C(C)=O)ccc1O [apocynin]
- LAP activity in vitro (LC3-II lipidation upon stimuli): abrogates LAP activity

SMILES: c1ccc2c(c1)[I+]c1ccccc1-2 [DPI, diphenyleneiodonium]
- LAP activity in vitro (LC3-II lipidation upon stimuli): abrogates LAP activity
